Test results: US9029147B2, “Methods and compositions for enhanced differentiation from embryonic stem cells” (Massachusetts Institute of Technology, priority 2007, dated 2015)
Several values for one entry are separate records, joined by “and”; a condition that tells them apart may be missing. Equal values may be shown once.

Assays:
Assay type in all cases: cell-based, mouse
mES cells [1] = experiment: Cardiomyocyte generation with 0 or 0.2 mM ascorbic acid, MF-20 immunostaining counted by flow cytometer; settings: 10 days
Description: Low Oxygen and Ascorbic Acid Act Synergistically to Promote Cardiomyocyte Generation. mES cells were differentiated for 10 days at 142, 36, and 7 mmHg pO2 and with either 0 or 0.2 mM ascorbic acid. Cardiomyocyte generation was measured by counting fixed cells immunostained for sacromeric myosin heavy chain using the MF-20 with a flow cytometer. […] (FIGS. 10 and 11.).

R1 ES cells = experiment: Fraction of MF-20 positive cells (cardiomyocytes) by flow cytometry, alternate differentiation protocol; settings: With 0.2 mM ascorbic acid
Source text: (§1) • Undifferentiated ES cell culture. J1 and R1 ES cells were obtained from ATCC (SCRC 1010, SCRC 1036, Manassaas, Va.), expanded on Mitomycin-C treated MEF cells, and frozen into vials following ATCC protocols. Vials were thawed into undifferentiated ES cell maintenance medium (described in Table 1) containing supplemental leukaemia inhibitory factor (LIF) and plated at a density of about 5×10^4 cell/cm^2 on 25 cm^2 cell culture flasks (353109, Becton Dickinson, Franklin Lakes, N.J.) that were treated for 30 min with a sterile 0.1% (w/v) solution of gelatine (G-2500, Sigma-Aldrich, St. Louis, Mo.) in tissue culture water (WFI, 25-055-CM, Mediatech, Herndon, Va.). Medium (Table 1) was exchanged daily, and cells were detached with 0.25% trypsin (30-2101, ATCC) every two days. Split fractions were chosen so that cells were plated at approximately 1.2^[…] cells/cm^2. Cells were used for differentiation experiments 4-6 days after thawing the cell vials. • EB formation. […] The concentration of cells with intact membranes was determined using trypan blue cell counts, and cells were diluted to a concentration of 2.5×10^4 membrane-intact cells/ml. […] of this cell suspension were aliquoted onto the inside surface of the lids of 10×10 cm Petri dishes (351112, Becton Dickinson) using an 8-channel pipette. The lids were inverted and placed onto the bottoms of the dishes, which were filled with 15 ml of a pre-warmed (37° C.) solution containing 75% (v/v) Dulbecco's phosphate buffered saline (DPBS, 21-030-CM, Mediatech), 25% water, and 0.002% (w/v) gelatine. • EB transfer. […], the resulting EBs were manually pipetted off of the Petri dish lid using wide-orifice pipette tips (3532, Molecular BioProducts, San Diego, Calif.) and placed into the wells of custom-made 24-well culture dish, which had the plastic bottom replaced with fibronectin-coated silicone rubber membrane. 30 EBs were placed into each well, and the medium was mixed by pipetting to distribute the EBs uniformly across the plate bottom. • Culture of attached EBs. The EBs attached and spread within one day of transfer to the silicone rubber membrane-based dish. The medium was removed from all of the wells 2 days after EB transfer and was replaced with 1 ml of fresh ES cell differentiation medium. On the following day, the medium was removed and replaced with 1 ml serum-free differentiation medium (Table 2). Medium continued to be exchanged daily with the serum-free differentiation medium until the end of the experiment. • Cell collection for nuclei counting and flow cytometry. […]

J1 mES cells = experiment: as above
Source text: as §1

mES cells [2] = experiment: Adhesion of mES cells to polystyrene and silicone rubber, native or with adsorbed gelatin or fibronectin; settings: after a day in culture
Description: FIG. 23. Adhesion of ES cells to polystyrene and silicone rubber. Adhesion of mES cells to polystyrene and silicone rubber in their native states or with 0.1% gelatin in water or […] fibronectin in PBS adsorbed onto the surface for 24 hr prior to cell addition. Below each pair of micrographs is quantitative data for the total, attached, and suspension cell numbers. Results shown are mean±SD for three wells in a 24 well plate seeded with 2×10^5 cell 26 hr prior to performing the cell counts.
PSS solution (polyanion) was added to an untreated plate and incubated for 1 hr, followed by a 10 min wash with DPBS, a 1 hr incubation with PEI (polycation), and a 10 min wash with DPBS. Two additional incubations with both PSS and PEI (30 min each) with intervening washes (10 min) were done to build a (PSS-PEI)3 PEM. To this PEM an additional 3 layers each of type B gelatin (polyanion) and PDL (polycation) were formed, using 30 min incubations with the polyelectrolyte solution, and 10 min washes with DPBS. The final PEM structure was thus (PSS-PEI)3-(type B gelatin—PDL)3. […] Attached nuclei were counted by adding 0.5 ml of lysis solution to the well and incubating for 10 min. […] The membrane-intact cell concentration was determined using trypan blue cell counts, and cells were diluted to a concentration of 25,000 membrane intact cells/ml. […]

Molecule | Effect on cardiomyocyte generation in combination with low pO2 (mES cells [1]; 0.2 mM combined with 36 mmHg pO2) | Effect on cardiomyocyte generation (mES cells [1]; 0.2 mM vs 0 mM, at all pO2 (142, 36, 7 mmHg)) | Fraction of MF-20 positive cells (R1 ES cells; pO2gas 7, 4 days hanging drop EBs then 7 days serum free ITS medium) | Fraction of MF-20 positive cells (R1 ES cells; pO2gas 36, 4 days hanging drop EBs then 7 days serum free ITS medium) | Fraction of MF-20 positive cells (J1 mES cells; With 0.2 mM ascorbic acid, pO2gas 36, J1, 4 days hanging drop EBs then 7 days serum free ITS medium) | Change in fraction of cardiomyocytes when ascorbic acid was included in the culture medium (J1 mES cells; all of the oxygen conditions tested, P=0.0005, J1 and R1 experiments of Table 4) | Fraction of cells attached (mES cells [2]) [%]
O=C1O[C@H]([C@@H](O)CO)C(O)=C1O [Ascorbic Acid, L-ascorbic acid] | a larger increase in cardiomyocytes than with either method alone | increased cardiomyocyte generation | 4 | 22 | 18 and 25 and 16 | highly significant increase | 
fibronectin: protein adsorbed onto silicone rubber to promote cell adhesion (F1141, Sigma-Aldrich) |  |  |  |  |  |  | 99
